Measurements from patent publication US20130324576A1, “THERAPEUTIC COMPOUNDS” (Takeda Pharmaceutical Company Limited, priority 2012, published 2013).
pIC50: −log10 of the molar value.

biological target: T1, human PKR1 receptors (Homo sapiens, UniProt Q8TCW9); assay: PKR1 antagonist assay: block of PK1-mediated intracellular calcium release (FLIPR Tetra, Calcium 5 dye); type: cell-based; conditions: RBL2H3 cells expressing human PKR1; 10 min pre-incubation, stimulation with PK1 at EC80; calcium fluorescence
T1 construct: expressed in transfected cells; host or cells: RBL2H3 cells (rat basophilic leukaemia line) expressing human PKR1
Experimental: Prokineticin receptor 1 (PKR1) antagonists may be functionally assessed by measurement of change in intracellular calcium levels induced by Gq mediated increase in inositol triphosphate (IP3) levels. The ability of a compound to block the intracellular release of calcium mediated by PK1 in RBL2H3 cells expressing human PKR1 receptors is determined as a measure of the compound's antagonist activity in vitro.
Approximately 10,000 cells per assay well are seeded in normal culture medium in a 384 well plate (Corning). Twenty-four hours after seeding, the cells are loaded with a calcium sensitive fluorescent dye by replacing the culture medium with assay buffer (1× Hanks buffered saline, 25 mM HEPES, 0.1% w/v fatty acid free BSA (bovine serum albumin), pH 7.4) containing 1 mM probenecid and 1× Calcium 5 Reagent (Molecular Devices). Cells are incubated at 37° C. for 1 hour to allow for dye uptake.
To test for antagonist activity, test compounds at a final concentration range between 0.32 nM-10 μM (diluted in assay buffer) are added to the assay wells and allowed to incubate for 10 minutes prior to stimulation with PK1. After incubation with test compounds the assay plate is placed in a FLIPR Tetra (Molecular Devices) and PK1 (diluted in assay buffer) is added at the determined EC80 concentration (final). Ligand-dependent changes in intracellular calcium levels are determined by measuring changes in fluorescence of the dye at […] following excitation at 485 nm.

T1 sequence (Q8TCW9 whole entry): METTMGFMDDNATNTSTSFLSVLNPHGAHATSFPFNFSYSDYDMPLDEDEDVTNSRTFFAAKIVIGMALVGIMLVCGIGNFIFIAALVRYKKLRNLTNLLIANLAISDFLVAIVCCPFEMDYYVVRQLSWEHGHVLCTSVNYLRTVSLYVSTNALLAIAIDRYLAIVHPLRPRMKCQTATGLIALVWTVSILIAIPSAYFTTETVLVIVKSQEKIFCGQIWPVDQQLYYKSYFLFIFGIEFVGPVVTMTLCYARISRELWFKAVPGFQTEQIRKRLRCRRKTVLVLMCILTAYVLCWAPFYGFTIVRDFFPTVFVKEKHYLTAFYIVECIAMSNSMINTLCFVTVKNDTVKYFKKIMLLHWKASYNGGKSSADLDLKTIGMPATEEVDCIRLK

Compound	pIC50
Cc1n[nH]c(C)c1S(=O)(=O)N1CCC(C(O)c2ccc(Cl)cc2)CC1 (stereo not drawn) [Example 94]	5.76
Cc1nn(C)c(C)c1S(=O)(=O)N1CCC(N(C)c2ccc(Cl)c(Cl)c2)CC1 [Example 54]	5.28
Cc1nn(C)c(C)c1S(=O)(=O)N1CCC(O)(Cc2ccc(Cl)c(Cl)c2)CC1 [Example 69, 4-(3,4-Dichlorobenzyl)-1-((1,3,5-trimethyl-1H-pyrazol-4-yl)sulfonyl)piperidin-4-ol]	5.19
CCOC(=O)C1(Cc2ccc(Br)cc2)CCN(S(=O)(=O)c2c(C)n[nH]c2C)CC1 [Example 62, Ethyl 4-(4-bromobenzyl)-1-((3,5-dimethyl-1H-pyrazol-4-yl)sulfonyl)piperidine-4-carboxylate]	6.17
Cc1nn(C)c(C)c1S(=O)(=O)N1CCC(Cc2ccc(Cl)c(F)c2)CC1 [Example 72, 4-(4-Chloro-3-fluorobenzyl)-1-((1,3,5-trimethyl-1H-pyrazol-4-yl)sulfonyl)piperidine]	6.36
Cc1n[nH]c(C)c1S(=O)(=O)N1CCC(Oc2ccc(Cl)c(F)c2)CC1 [Example 47, 4-(4-Chloro-3-fluorophenoxy)-1-(3,5-dimethyl-1H-pyrazole-4-sulfonyl)piperidine]	5.72
Cc1n[nH]c(C)c1S(=O)(=O)N1CCC(O)(Cc2ccc(Cl)cc2F)CC1 [Example 75, 4-(4-Chloro-2-fluorobenzyl)-1-((3,5-dimethyl-1H-pyrazol-4-yl)sulfonyl)piperidin-4-ol]	5.16
COCC(c1ccc(Cl)cc1)C1CCN(S(=O)(=O)c2c(C)n[nH]c2C)CC1 (stereo not drawn) [Example 109, 4-(1-(4-Chlorophenyl)-2-methoxyethyl)-1-((3,5-dimethyl-1H-pyrazol-4-yl)sulfonyl)piperidine]	5.73
COC1(Cc2ccc(Cl)cc2)CCN(S(=O)(=O)c2c(C)nn(C)c2C)CC1 [Example 58, 4-(4-Chlorobenzyl)-4-methoxy-1-((1,3,5-trimethyl-1H-pyrazol-4-yl)sulfonyl)piperidine]	5.62
COc1c(F)cc(OC2CCN(S(=O)(=O)c3c(C)n[nH]c3C)CC2)cc1F [Example 42, 4-(3,5-Difluoro-4-methoxyphenoxy)-1-(3,5-dimethyl-1H-pyrazole-4-sulfonyl)piperidine]	5.23
Cc1ccc(OC2CCN(S(=O)(=O)c3c(C(F)(F)F)nn(C)c3C)CC2)cc1 [Example 10, 1-{[1,5-Dimethyl-3-(trifluoromethyl)-1H-pyrazol-4-yl]sulfonyl}-4-(4-methylphenoxy)piperidine]	5.77
COC(c1ccccc1)C1CCN(S(=O)(=O)c2c(C)n[nH]c2C)CC1 (stereo not drawn) [Example 110, 1-((3,5-Dimethyl-1H-pyrazol-4-yl)sulfonyl)-4-(methoxy(phenyl)methyl)piperidine]	5.52
CCc1nn(C)c(CC)c1S(=O)(=O)N1CCC(Oc2ccc(Cl)cc2Cl)CC1 [Example 28, 4-(2,4-Dichlorophenoxy)-1-[(3,5-diethyl-1-methyl-1H-pyrazol-4-yl)sulfonyl]piperidine]	6.49
CCOC(=O)C1(Cc2ccc(Cl)cc2)CCN(S(=O)(=O)c2c(C)nn(C)c2C)CC1 [Example 61, Ethyl 4-(4-chlorobenzyl)-1-((1,3,5-trimethyl-1H-pyrazol-4-yl)sulfonyl)piperidine-4-carboxylate]	5.97
Cc1nn(C)c(C)c1S(=O)(=O)N1CCC(Nc2ccc(Cl)c(Cl)c2)CC1 [Example 52, N-(3,4-Dichlorophenyl)-1-((1,3,5-trimethyl-1H-pyrazol-4-yl)sulfonyl)piperidin-4-amine]	5.57
COc1cc(Cl)ccc1CC1(OC)CCN(S(=O)(=O)c2c(C)n[nH]c2C)CC1 [Example 86, 4-(4-Chloro-2-methoxybenzyl)-1-((3,5-dimethyl-1H-pyrazol-4-yl)sulfonyl)-4-methoxypiperidine]	5.34
COC(c1ccc(Cl)cc1)C1CCN(S(=O)(=O)c2c(C)n[nH]c2C)CC1 (stereo not drawn) [Example 96, 4-((4-Chlorophenyl)(methoxy)methyl)-1-((3,5-dimethyl-1H-pyrazol-4-yl)sulfonyl)piperidine]	7.10
Cc1n[nH]c(C)c1S(=O)(=O)N1CCC(C(C)c2ccc(Cl)cc2)CC1 (stereo not drawn) [Example 102, 4-(1-(4-Chlorophenyl)ethyl)-1-((3,5-dimethyl-1H-pyrazol-4-yl)sulfonyl)piperidine]	6.33
CCOC(c1ccc(Cl)cc1)C1CCN(S(=O)(=O)c2c(C)n[nH]c2C)CC1 (stereo not drawn) [Example 104, 4-((4-Chlorophenyl)(ethoxy)methyl)-1-((3,5-dimethyl-1H-pyrazol-4-yl)sulfonyl)piperidine]	6.14
Cc1n[nH]c(C)c1S(=O)(=O)N1CCC(C#N)(Cc2ccc(Cl)cc2Cl)CC1 [Example 65, 4-(2,4-Dichlorobenzyl)-1-((3,5-dimethyl-1H-pyrazol-4-yl)sulfonyl)piperidine-4-carbonitrile]	6.03
Cc1nn(C)c(C)c1S(=O)(=O)N1CCC(Oc2ccc(Cl)cn2)CC1 [Example 48, 5-Chloro-2-((1-((1,3,5-trimethyl-1H-pyrazol-4-yl)sulfonyl)piperidin-4-yl)oxy)pyridine]	5.42
Cc1nn(C)c(C)c1S(=O)(=O)N1CCC(Oc2ccc(Cl)c(F)c2)CC1 [Example 45, 4-(4-Chloro-3-fluorophenoxy)-1-(trimethyl-1H-pyrazole-4-sulfonyl)piperidine]	5.85
Cc1n[nH]c(C)c1S(=O)(=O)N1CCC(O)(Cc2ccc(Cl)cc2)CC1 [Example 108, 4-(4-Chlorobenzyl)-1-((3,5-dimethyl-1H-pyrazol-4-yl)sulfonyl)piperidin-4-ol]	5.79
Cc1nn(C)c(C)c1S(=O)(=O)N1CCC(Oc2ccc(Cl)cc2F)CC1 [Example 30, 4-(4-Chloro-2-fluorophenoxy)-1-(trimethyl-1H-pyrazole-4-sulfonyl)piperidine]	6.29
COCC1(Cc2ccc(Cl)cc2)CCN(S(=O)(=O)c2c(C)nn(C)c2C)CC1 [Example 60, 4-(4-Chlorobenzyl)-4-(methoxymethyl)-1-((1,3,5-trimethyl-1H-pyrazol-4-yl)sulfonyl)piperidine]	6.05
Cc1nn(C)c(C)c1S(=O)(=O)N1CCC(Oc2ccc(Cl)cc2)CC1C (stereo not drawn) [Example 24, 4-(4-Chlorophenoxy)-2-methyl-1-[(1,3,5-trimethyl-1H-pyrazol-4-yl)sulfonyl]piperidine]	5.82
COc1cc(Cl)ccc1CC1CCN(S(=O)(=O)c2c(C)n[nH]c2C)CC1 [Example 78, 4-(4-Chloro-2-methoxybenzyl)-1-((3,5-dimethyl-1H-pyrazol-4-yl)sulfonyl)piperidine]	7.15
Cc1n[nH]c(C)c1S(=O)(=O)N1CCC(Nc2ccc(Cl)cc2)CC1 [Example 103, N-(4-Chlorophenyl)-1-((3,5-dimethyl-1H-pyrazol-4-yl)sulfonyl)piperidin-4-amine]	5.75
Cc1nn(C)c(C)c1S(=O)(=O)N1CCC(Oc2ccc(OC(F)(F)F)cc2)CC1 [Example 3, 4-[4-(Trifluoromethoxy)phenoxy]-1-[(1,3,5-trimethyl-1H-pyrazol-4-yl)sulfonyl]piperidine]	5.85
Cc1nn(C)c(C)c1S(=O)(=O)N1CCC(F)(Cc2ccc(Cl)cc2F)CC1 [Example 81, 4-(4-Chloro-2-fluorobenzyl)-4-fluoro-1-((1,3,5-trimethyl-1H-pyrazol-4-yl)sulfonyl)piperidine]	6.17
